According to patent US12329738B2, “Urolithin A and a composition containing same for external use in inflammations of various etiologies” (WARSZAWSKI UNIWERSYTET MEDYCZNY, priority 2018, dated 2025):

Key:
[1] = Local application of urolithin A ointment on skin by volunteers; assay type: in vivo, human; conditions: 1.0% urolithin A ointment in white petrolatum, 20 mg per 4 cm^2 once a day for two weeks
Description: The therapeutic composition was an ointment prepared on the base of white petrolatum with 1.0% urolithin A added. The control ointment was white petrolatum without the addition of urolithin A. 1.0% urolithin A composition and the carrier—white petrolatum was applied on washed and dried skin by volunteers themselves, at a dose of 20 mg ointment per surface 4 cm^2 daily, once a day for two weeks.
The following parameters were taken into account in the study: feeling of discomfort after application of the composition on the skin, ease of application, discoloration of the skin at the site of application, redness of the skin at the site of application of the composition, degree of drying of the treated area of the skin, sensation of pinching, burning, itching and other types of discomfort. Participants in the study determined their level of satisfaction/dissatisfaction on a 10-point scale, 0 being dissatisfaction and 10 being satisfaction with the pharmaceutical composition of the present invention.

[2] = system: ERK1/2; assay: ERK1/2 phosphorylation in THP-1 derived macrophages (Western blotting); assay type: cell-based, human; conditions: 40 μM; LPS 10 ng/mL, 35 min; FIG. 15
Description: Monocytes of the THP-1 line were cultured in RPMI 1640 medium supplemented with 10% FBS and 2 mM glutamine. For transformation of monocytes into macrophages, the cells were treated with 12.5 ng/mL PMA (phorbol 12-myristate 13-acetate) for 48 hours, then washed and incubated for 24 hours in a culture medium without PMA. After this time, urolithin A, urolithin B, iso-urolithin A and the corresponding glucuronides (GUA, GUB and GiUA) were added to the cells at a concentration of 40 μM. After 1 hour of incubation with the compounds, the cells were stimulated with LPS from Escherichia coli (10 ng/mL). To assess the level of TNF-alpha production, the cells were incubated for 6 hours, to assess the expression of mRNA for TNF-alpha, the cells were incubated for 24 hours, to assess the effect on ERK1/2 phosphorylation, the cells were incubated for 35 minutes. […] The obtained results of experiments on in vitro models were analyzed using the Statistica 13 program (StatSoft, Inc., Tulsa, OK, USA) and presented as mean values±SEM. Statistical significance was set at P≤0.05. The results with established normal distribution in the D'Agostin and Pearson test were prepared using analysis of variance (ANOVA). Parametric post-hoc analysis was performed using Dunnett's test.

[3] = Thermal, acid and UV stability of urolithin A (UPLC-DAD-MS); assay type: physicochemical; conditions: 80 μM in deionized water or 1M HCl, 24 hours at 37° C. or 12 hours at 80° C.; UVA 365 nm 12 hours
Description: Urolithin A at 80 μM was suspended in deionized water or 1M HCl and incubated for 24 hours at 37° C. or for 12 hours at 80° C. The urolithin A solution was also irradiated for 12 hours with a UV lamp emitting UVA radiation with the maximum at 365 nm. The concentration of urolithin A after incubation was determined using the UPLC-DAD-MS method according to Piwowarski et al. 2016.

[4] = system: mRNA for TNF-alpha; assay: TNF-alpha mRNA expression in THP-1 derived macrophages (real time PCR); assay type: cell-based, human; conditions: 40 μM; LPS stimulation; FIG. 14
Description: Monocytes of the THP-1 line were cultured in RPMI 1640 medium supplemented with 10% FBS and 2 mM glutamine. For transformation of monocytes into macrophages, the cells were treated with 12.5 ng/mL PMA (phorbol 12-myristate 13-acetate) for 48 hours, then washed and incubated for 24 hours in a culture medium without PMA. After this time, urolithin A, urolithin B, iso-urolithin A and the corresponding glucuronides (GUA, GUB and GiUA) were added to the cells at a concentration of 40 μM. After 1 hour of incubation with the compounds, the cells were stimulated with LPS from Escherichia coli (10 ng/mL).
To assess the level of TNF-alpha production, the cells were incubated for 6 hours, to assess the expression of mRNA for TNF-alpha, the cells were incubated for 24 hours, to assess the effect on ERK1/2 phosphorylation, the cells were incubated for 35 minutes.
The level of TNF-alpha in the culture medium was determined using the immunochemical ELISA method (BD biosciences). Evaluation of the expression of mRNA for TNF-alpha was performed using real time PCR. After 24 hours of incubation, RNA was isolated using NucleoSpin RNA Clean-up (Macherey-Nagel). The amount and quality of isolated RNA was determined using 2100 Bioanalyzer (Agilent Technologies). The expression level of mRNA for TNF-α was determined using Brilliant II SYBR Green QPCR Kit and Aria Mx Real-Time PCR thermocycler (Agilent Technologies). The following were used as primers for TNF-alpha: forward: 5′-[…]-3′, reverse: 5′-[…]-3′. Beta-actin (ACTB) was used as the housekeeping gene; primer forward: 5′-[…]-3′, reverse: 5′-[…]-3′).
The obtained results of experiments on in vitro models were analyzed using the Statistica 13 program (StatSoft, Inc., Tulsa, OK, USA) and presented as mean values±SEM. Statistical significance was set at P≤0.05. The results with established normal distribution in the D'Agostin and Pearson test were prepared using analysis of variance (ANOVA). Parametric post-hoc analysis was performed using Dunnett's test.

[5] = system: Wistar rats (DNCB-induced atopic dermatitis); assay: Ear thickness (edema) in DNCB-induced atopic dermatitis rat model; assay type: in vivo
Description: It is similar to the indications for use of hydrocortisone, which was used as a positive control in the study. Urolitin A was obtained by synthesis according to Bialonska et al. (Bialonska et al., 2009) or purchased from Sigma-Aldrich. The ointment containing urolithin A was prepared by emulsifying the weighed substance into a solid vehicle (white petrolatum) using an unguator. Wistar rats aged 5-6 weeks (at the start of the experiment) kept under standard conditions with free access to feed and water were used for the tests. The animals were divided into 5 groups, 8 individuals in each group. To prepare 2,4-dinitrochlorobenzene (DNCB) composition inducing inflammation, DNCB was dissolved in 70% ethanol to a final concentration of 1.5% (w/v). Therapeutic composition was an ointment based on white petrolatum with 0.2% or 1.0% urolithin A added. The control ointment was white petrolatum without addition of urolithin A. The induction of chronic atopic dermatitis involved local 9-fold infiltration with 60 μl 1.5% 2,4-dinitrochlorobenzene (DNCB) on each (external and internal) surface of the right ear over 3 weeks (3 times a week). Negative control was the right ear of rats without induction inflammation. Treatment of atopic dermatitis with 0.2% or 1.0% urolithin composition and white petrolatum (control) or 1.0% hydrocortisone composition (positive control) was started eight days after sensitization—one day before the fourth application of DNCB. Ointments with appropriate for given group drug added were applied in a total volume of about 20 μl to each ear surface one day before and 6 hours after each DNCB application (for a period of 3 weeks). The negative control group consisted of rats without induced inflammation and treated with white petrolatum in a regimen analogous to the composition of urolithin A or hydrocortisone. Ear thickness was assessed using an electronic mini caliper the day before inflammation was induced (day 0) and then on days 4 and 8 prior to treatment and on days 4, 8, 12, 16, […] of therapy with urolithin A composition (on days 12, 16, 20, 24, 28 and 32 after inflammation inducing, respectively). The experimental results obtained were analyzed using the Statistica 7.1 program (StatSoft, Inc., Tulsa, OK, USA) and presented as mean values±SE. Statistical significance was set at P≤0.05. The results with established normal distribution in the D'Agostin and Pearson test were prepared using two- or three-factor analysis of variance (ANOVA). Parametric post-hoc analysis for individual time points was performed using the Bonferroni test.

Question: What does the source list for `O=c1oc2cc(O)ccc2c2ccc(O)cc12` [urolithin A]?
Answer: Adverse effects after skin application [1]: did not cause any adverse effects; ERK1/2 kinase phosphorylation in THP-1 derived macrophages [2]: stimulation of ERK1/2 kinase phosphorylation; Stability (degradation / change in chemical structure) [3]: stable; TNF-alpha mRNA expression in THP-1 derived macrophages [4]: inhibitory effect on TNF-alpha mRNA expression; Ear edema, comparison of urolithin doses with each other ([5]; 0.2% vs 1%, p<0.05): more effective at a concentration of 1%; Time profile of anti-edema effect, urolithin A vs. hydrocortisone ([5]; later treatment period (from day 12 to 28 of treatment), dose 0.2 and 1%, p<0.01): more effective in the later treatment period; Ear edema (ear thickness) after local therapy ([5]; topical ointment in white petrolatum, urolithin A 0.2 and 1.0%, hydrocortisone 1%, urolithin A p<0.001, hydrocortisone p<0.01): reduced; Anti-inflammatory (ear edema) effect compared to hydrocortisone 1% ([5]; urolithin A 0.2% ointment): absence of significantly greater efficiency; Anti-inflammatory (ear edema) effect compared to hydrocortisone 1% ([5]; urolithin A 1% ointment, p<0.05): significantly greater anti-inflammatory effect compared to hydrocortisone; Ear edema reduction, urolithin vs. hydrocortisone (2-factor ANOVA) ([5]; urolithin A (both doses) vs. 1% hydrocortisone, p<0.05): stronger
